Results from ChEMBL document CHEMBL2073999, “Vectorial transport by double-transfected cells expressing the human uptake transporter SLC21A8 and the apical export pump ABCC2” (Mol Pharmacol, 2001).

tested on: MDCK-II; assay: TP_TRANSPORTER: transepithelial transport in OATP1B3/MRP2 double transfectant (MDCKII); type: functional, cell-based

Question: Which Activity does the source give for CCCCC/C=C\C\C=C/C=C/C=C/[C@@H](SC[C@@H](NC(=O)CC[C@H](N)C(=O)O)C(=O)NCC(=O)O)[C@@H](O)CCCC(=O)O here?
Answer: substrate []

Question: How did the Activity turn out when Cc1ccc(N(CC(=O)O)CC(=O)O)c(OCCOc2cc(-c3c4cc(Cl)c(=O)cc-4oc4cc(O)c(Cl)cc34)ccc2N(CC(=O)O)CC(=O)O)c1 was run?
Answer: substrate []

Question: Which Activity does the source give for CO[C@H]1/C=C/O[C@@]2(C)Oc3c(C)c(O)c4c(O)c(c(/C=N/N5CCN(C)CC5)c(O)c4c3C2=O)NC(=O)/C(C)=C\C=C\[C@H](C)[C@H](O)[C@@H](C)[C@@H](O)[C@@H](C)[C@H](OC(C)=O)[C@@H]1C here?
Answer: substrate []

Question: O=C1OC(c2ccc(O)c(S(=O)(=O)O)c2)(c2ccc(O)c(S(=O)(=O)O)c2)c2c(Br)c(Br)c(Br)c(Br)c21 was tested. Which Activity did it give?
Answer: substrate []

Question: How did the Activity turn out when C[C@]12CC[C@H](OS(=O)(=O)O)CC1=CC[C@@H]1[C@@H]2CC[C@]2(C)C(=O)CC[C@@H]12 was run?
Answer: substrate []

Question: Which Activity does the source give for C[C@]12CC[C@@H]3c4ccc(O)cc4CC[C@H]3[C@@H]1CC[C@@H]2O[C@@H]1O[C@H](C(=O)O)[C@@H](O)[C@H](O)[C@H]1O here?
Answer: substrate []
